Experimental data from patent publication US11041000B2, “Peptide inhibitors of interleukin-23 receptor and their use to treat inflammatory diseases” (priority 2019, dated 2021).
Bridge positions count the residues as written; N and C are the ends. Square brackets hold non-standard residues; d marks the D form. Peptide text beside a SMILES is read from it. Trp(7-Me) = Cc1cccc2c(C[C@H](N)C(=O)O)c[nH]c12; 2Nal = N[C@@H](Cc1ccc2ccccc2c1)C(=O)O; AEF = NCCOc1ccc(C[C@H](N)C(=O)O)cc1; Cit = NC(=O)NCCC[C@H](N)C(=O)O; Pen = CC(C)(S)[C@H](N)C(=O)O; αMeK = C[C@](N)(CCCCN)C(=O)O; Aib = CC(C)(N)C(=O)O; βAla = NCCC(=O)O

Assays:
Assay type in all cases: in vitro ADME
[1] = Stability in human fecal homogenate; conditions: 20% fecal homogenate (supernatant), pH 6.8, 20% human fecal homogenate, anaerobic, 37° C., read-out: t½: Human Feces anaerobic (converted)
Procedure: (§1) Centrifuged the homogenate at 2800×g for 15 min. The supernatant is taken out and used for incubations. […] The final test compound concentration was 20 μM.

[2] = Stability in simulated intestinal fluid (SIF); conditions: simulated intestinal fluid with pancreatin, pH 6.8, 37° C., matrix is 100 fold dilution of standard SIF concentration; for half-life at 20 μM: read-out: SIF t½ (converted); for SIF t½: 20 μM
[3] = Stability in cynomolgus monkey fecal homogenate; conditions: 20% fecal homogenate (supernatant), pH 6.8, 20% cynomolgus monkey fecal homogenate, anaerobic, 37° C., read-out: t½: Monkey Feces anaerobic (converted)
Procedure: as §1

[4] = Stability in rat plasma; conditions: both sexes, SD rat plasma, EDTA, 37° C., read-out: t½: Rat Plasma EDTA (converted)

Compound | half-life at 20 μM [1] [min] | half-life at 20 μM [2] [min] | half-life at 20 μM [3] [min] | half-life at 20 μM [4] [min] | SIF t½ [2] [h]
CC(=O)NCCCC[C@@H]1NC(=O)[C@H](Cc2c[nH]c3c(C)cccc23)NC(=O)[C@H]([C@@H](C)O)NC(=O)[C@H](CC(N)=O)NC(=O)[C@@H](NC(C)=O)C(C)(C)SSC(C)(C)[C@@H](C(=O)N[C@@H](Cc2ccc(OCCN)cc2)C(=O)N[C@@H](Cc2ccc3ccccc3c2)C(=O)N[C@@](C)(CCCCN)C(=O)N[C@@H](CCCCNC(C)=O)C(=O)N[C@@H](CO)C(=O)N[C@H](CCCCN)C(N)=O)NC1=O [compound 352] | > 1440 | 420 | > 1440 | > 1440 | 
CC(=O)NCCCC[C@H](NC(=O)[C@](C)(CCCCN)NC(=O)[C@H](Cc1ccc2ccccc2c1)NC(=O)[C@H](Cc1ccc(OCCN)cc1)NC(=O)[C@H]1NC(=O)[C@H](CCCNC(N)=O)NC(=O)[C@H](Cc2c[nH]c3c(C)cccc23)NC(=O)[C@H]([C@@H](C)O)NC(=O)[C@H](CC(N)=O)NC(=O)[C@@H](NC(C)=O)C(C)(C)SSC1(C)C)C(=O)N[C@@H](CC(N)=O)C(=O)NC(C)(C)C(=O)N[C@@H](C)C(N)=O [compound 342] (Ac-[Pen]NT[Trp(7-Me)][Cit][Pen][AEF][2Nal][αMeK]K(Ac)N[Aib]A-NH2; disulfide 1-6) | 720 | 960 | 900 | > 1440 | 
CC(=O)NCCCC[C@@H]1NC(=O)[C@H](Cc2c[nH]c3c(C)cccc23)NC(=O)[C@H]([C@@H](C)O)NC(=O)[C@H](CC(N)=O)NC(=O)[C@@H](NC(C)=O)C(C)(C)SSC(C)(C)[C@@H](C(=O)N[C@@H](Cc2ccc(OCCN)cc2)C(=O)N[C@@H](Cc2ccc3ccccc3c2)C(=O)N[C@@](C)(CC(C)C)C(=O)N[C@@H](CCCCNC(C)=O)C(=O)N[C@@H](CC(N)=O)C(=O)N[C@H](CC(N)=O)C(N)=O)NC1=O [compound 354] | > 1440 | 660 | > 1440 | 420 | 
CC(=O)NCCCC[C@@H]1NC(=O)[C@H](Cc2c(C)[nH]c3ccccc23)NC(=O)[C@H]([C@@H](C)O)NC(=O)[C@H](CC(N)=O)NC(=O)[C@@H](NC(C)=O)C(C)(C)SSC(C)(C)[C@@H](C(=O)N[C@@H](Cc2ccc(OCCN)cc2)C(=O)N[C@@H](Cc2ccc3ccccc3c2)C(=O)N[C@@](C)(CCCCN)C(=O)N[C@@H](CCCCNC(C)=O)C(=O)N[C@@H](CC(N)=O)C(=O)N[C@H](CCCCN)C(N)=O)NC1=O [compound 351] | > 1440 | 720 | > 1440 | > 1440 | 
CC(=O)NCCCC[C@H](NC(=O)[C@](C)(CCCCN)NC(=O)[C@H](Cc1ccc2ccccc2c1)NC(=O)[C@H](Cc1ccc(OCCN)cc1)NC(=O)[C@H]1NC(=O)[C@H](CCC(N)=O)NC(=O)[C@H](Cc2c[nH]c3ccc(C#N)cc23)NC(=O)[C@H]([C@@H](C)O)NC(=O)[C@H](CC(N)=O)NC(=O)[C@@H](NC(C)=O)C(C)(C)SSC1(C)C)C(=O)N[C@@H](CC(N)=O)C(=O)N[C@H](CCCCN)C(N)=O [compound 296] | > 1440 |  | > 1440 | > 1440 | 24
CC(=O)NCCCC[C@H](NC(=O)[C@](C)(CCCCN)NC(=O)[C@H](Cc1ccc2ccccc2c1)NC(=O)[C@H](Cc1ccc(OCCN)cc1)NC(=O)[C@H]1NC(=O)[C@H](CCCNC(N)=O)NC(=O)[C@H](Cc2c[nH]c3c(C)cccc23)NC(=O)[C@H]([C@@H](C)O)NC(=O)[C@H](CC(N)=O)NC(=O)[C@@H](NC(C)=O)C(C)(C)SSC1(C)C)C(=O)N[C@@H](CC(N)=O)C(=O)NC(C)(C)C(=O)NCCC(N)=O [compound 340] (Ac-[Pen]NT[Trp(7-Me)][Cit][Pen][AEF][2Nal][αMeK]K(Ac)N[Aib][βAla]-NH2; disulfide 1-6) | > 1440 | 1020 | > 1440 | > 1440 | 
CC(=O)NCCCC[C@H](NC(=O)[C@](C)(CCCCN)NC(=O)[C@H](Cc1ccc2ccccc2c1)NC(=O)[C@H](Cc1ccc(OCCN)cc1)NC(=O)[C@H]1NC(=O)[C@H](CCCCNC(=O)CCN)NC(=O)[C@H](Cc2c[nH]c3c(C)cccc23)NC(=O)[C@H]([C@@H](C)O)NC(=O)[C@H](CC(N)=O)NC(=O)[C@@H](NC(C)=O)C(C)(C)SSC1(C)C)C(=O)N[C@@H](CC(N)=O)C(=O)N[C@H](CC(C)C)C(N)=O [compound 321] | > 1440 |  | > 1440 | > 1440 | 24
CC(=O)NCCCC[C@H](NC(=O)[C@](C)(CCCCN)NC(=O)[C@H](Cc1ccc2ccccc2c1)NC(=O)[C@H](Cc1ccc(OCCN)cc1)NC(=O)[C@H]1NC(=O)[C@H](CCCCNC(=O)[C@H](C)N)NC(=O)[C@H](Cc2c[nH]c3c(C)cccc23)NC(=O)[C@H]([C@@H](C)O)NC(=O)[C@H](CC(N)=O)NC(=O)[C@@H](NC(C)=O)C(C)(C)SSC1(C)C)C(=O)N[C@@H](CC(N)=O)C(=O)N[C@H](CC(C)C)C(N)=O [compound 314] | > 1440 |  | > 1440 | > 1440 | 24

More lines, main results first:

half-life at 20 μM [1] [min] | half-life at 20 μM [2] [min] | half-life at 20 μM [3] [min] | half-life at 20 μM [4] [min] | Compound | SIF t½ [2] [h]
> 1440 |  | > 1440 | > 1440 | CC(=O)NCCCC[C@@H]1NC(=O)[C@H](Cc2c[nH]c3c(C)cccc23)NC(=O)[C@H]([C@@H](C)O)NC(=O)[C@H](CCCCNC(C)=O)NC(=O)[C@@H](NC(C)=O)C(C)(C)SSC(C)(C)[C@@H](C(=O)N[C@@H](Cc2ccc(OCCN)cc2)C(=O)N[C@@H](Cc2ccc3ccccc3c2)C(=O)N[C@@](C)(CCCCN)C(=O)N[C@@H](CCCCNC(C)=O)C(=O)N[C@@H](CC(N)=O)C(=O)N[C@H](CC(C)C)C(N)=O)NC1=O [compound 330] (Ac-[Pen]K(Ac)T[Trp(7-Me)]K(Ac)[Pen][AEF][2Nal][αMeK]K(Ac)N[dL]-NH2; disulfide 1-6) | 24
> 1440 |  | > 1440 | > 1440 | CC(=O)NCCCC[C@@H]1NC(=O)[C@H](Cc2c[nH]c3c(C)cccc23)NC(=O)[C@H]([C@@H](C)O)NC(=O)[C@H](CC(C)C)NC(=O)[C@@H](NC(C)=O)C(C)(C)SSC(C)(C)[C@@H](C(=O)N[C@@H](Cc2ccc(OCCN)cc2)C(=O)N[C@@H](Cc2ccc3ccccc3c2)C(=O)N[C@@](C)(CCCCN)C(=O)N[C@@H](CCCCNC(C)=O)C(=O)N[C@@H](CC(N)=O)C(=O)N[C@H](CC(C)C)C(N)=O)NC1=O [compound 332] (Ac-[Pen]LT[Trp(7-Me)]K(Ac)[Pen][AEF][2Nal][αMeK]K(Ac)N[dL]-NH2; disulfide 1-6) | 24
> 1440 | 1260 | 900 | > 1440 | CC(=O)NCCCC[C@H](NC(=O)[C@](C)(CCCCN)NC(=O)[C@H](Cc1ccc2ccccc2c1)NC(=O)[C@H](Cc1ccc(OCCN)cc1)NC(=O)[C@H]1NC(=O)[C@H](CCCCNC(=O)CN)NC(=O)[C@H](Cc2c[nH]c3c(C)cccc23)NC(=O)[C@H]([C@@H](C)O)NC(=O)[C@H](CC(N)=O)NC(=O)[C@@H](NC(C)=O)C(C)(C)SSC1(C)C)C(=O)N[C@@H](CC(N)=O)C(=O)N[C@H](CC(C)C)C(N)=O [compound 320] | 
> 1440 | 1320 | 1440 | > 1440 | CC(=O)NCCCC[C@@H]1NC(=O)[C@H](Cc2c[nH]c3c(C)cccc23)NC(=O)[C@H]([C@@H](C)O)NC(=O)[C@@H]2CCCN2C(=O)[C@@H](NC(C)=O)C(C)(C)SSC(C)(C)[C@@H](C(=O)N[C@@H](Cc2ccc(OCCN)cc2)C(=O)N[C@@H](Cc2ccc3ccccc3c2)C(=O)N[C@@](C)(CCCCN)C(=O)N[C@@H](CCCCNC(C)=O)C(=O)N[C@@H](CC(N)=O)C(=O)N[C@H](CC(C)C)C(N)=O)NC1=O [compound 333] (Ac-[Pen]PT[Trp(7-Me)]K(Ac)[Pen][AEF][2Nal][αMeK]K(Ac)N[dL]-NH2; disulfide 1-6) | 
> 1440 | 900 | > 1440 | > 1440 | CC(=O)NCCCC[C@@H]1NC(=O)[C@H](Cc2c[nH]c3c(C)cccc23)NC(=O)[C@H]([C@@H](C)O)NC(=O)[C@H](CCCNC(N)=O)NC(=O)[C@@H](NC(C)=O)C(C)(C)SSC(C)(C)[C@@H](C(=O)N[C@@H](Cc2ccc(OCCN)cc2)C(=O)N[C@@H](Cc2ccc3ccccc3c2)C(=O)N[C@@](C)(CCCCN)C(=O)N[C@@H](CCCCNC(C)=O)C(=O)N[C@@H](CC(N)=O)C(=O)N[C@H](CC(C)C)C(N)=O)NC1=O [compound 331] (Ac-[Pen][Cit]T[Trp(7-Me)]K(Ac)[Pen][AEF][2Nal][αMeK]K(Ac)N[dL]-NH2; disulfide 1-6) | 
720 | 480 | > 1440 | > 1440 | CC(=O)NCCCC[C@@H]1NC(=O)[C@H](Cc2c[nH]c3c(C)cccc23)NC(=O)[C@H]([C@@H](C)O)NC(=O)[C@H](CC(N)=O)NC(=O)[C@@H](NC(C)=O)C(C)(C)SSC(C)(C)[C@@H](C(=O)N[C@@H](Cc2ccc(OCCN)cc2)C(=O)N[C@@H](Cc2ccc3ccccc3c2)C(=O)N[C@@](C)(CCCCN)C(=O)N[C@@H](CCCCNC(=O)[C@H](C)N)C(=O)N[C@@H](CC(N)=O)C(=O)N[C@H](CC(C)C)C(N)=O)NC1=O [compound 355] | 
